Results from patent US20210238173A1, “MITOGEN-ACTIVATED PROTEIN KINASE KINASE 7 INHIBITORS” (Yeda Research and Development Co. Ltd., priority 2018, published 2021).

Tests used:
MKK7 = target: T1, MKK7 (Homo sapiens, UniProt O14733); test: In vitro kinase activity assay for MKK7 (Nanosyn); format: biochemical; conditions: read-out: MKK7 IC50 in vitro
T1 construct: purchased Nanosyn (contract assay)
T1 sequence (O14733 1-419): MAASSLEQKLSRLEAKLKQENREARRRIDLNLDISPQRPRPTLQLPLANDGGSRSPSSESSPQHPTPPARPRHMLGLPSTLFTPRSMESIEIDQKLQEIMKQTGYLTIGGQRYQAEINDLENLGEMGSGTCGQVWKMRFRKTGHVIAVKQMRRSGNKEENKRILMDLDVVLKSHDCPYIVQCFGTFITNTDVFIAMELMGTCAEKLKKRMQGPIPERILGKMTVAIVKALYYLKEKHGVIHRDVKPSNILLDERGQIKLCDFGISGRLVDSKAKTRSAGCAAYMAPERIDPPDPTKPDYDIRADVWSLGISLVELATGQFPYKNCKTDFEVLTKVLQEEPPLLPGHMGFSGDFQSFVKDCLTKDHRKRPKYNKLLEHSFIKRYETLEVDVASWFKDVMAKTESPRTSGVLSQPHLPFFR
Experimental: Based on visual inspection of the top 500 predictions, 10 compounds were selected for synthesis and testing (see, Table 1). The “Docking rank” is given in its respective run, whereas four virtual libraries of acrylamides were docked separately, based on the amine precursor for the acrylamide (primary or secondary aliphatic amines, primary or secondary aromatic amines). In vitro kinase activity assay was carried out by Nanosyn, as described below.
(§1) In Vitro Activity Assays for MKK7 or MKK4 (Carried by Nanosyn):
(§2) Exemplary test compounds, according to some embodiments of the present invention, were diluted in DMSO to a final concentration that ranged from 10 μM to 0.0565 nM, while final concentration of DMSO in all assays was kept at 1%. Reference compound, Staurosporine, was tested in a similar manner. […] After incubation, activity of now activated JNK1 was tested in the presence of 30 μM ATP ATP for 17 h (MKK7) or 4 h (MKK4).

MKK4 = target: T2, MKK4 (Homo sapiens, UniProt P45985); test: In vitro activity assay for MKK4 (Nanosyn); format: biochemical
T2 construct: purchased Nanosyn (contract assay)
T2 sequence (P45985 1-399): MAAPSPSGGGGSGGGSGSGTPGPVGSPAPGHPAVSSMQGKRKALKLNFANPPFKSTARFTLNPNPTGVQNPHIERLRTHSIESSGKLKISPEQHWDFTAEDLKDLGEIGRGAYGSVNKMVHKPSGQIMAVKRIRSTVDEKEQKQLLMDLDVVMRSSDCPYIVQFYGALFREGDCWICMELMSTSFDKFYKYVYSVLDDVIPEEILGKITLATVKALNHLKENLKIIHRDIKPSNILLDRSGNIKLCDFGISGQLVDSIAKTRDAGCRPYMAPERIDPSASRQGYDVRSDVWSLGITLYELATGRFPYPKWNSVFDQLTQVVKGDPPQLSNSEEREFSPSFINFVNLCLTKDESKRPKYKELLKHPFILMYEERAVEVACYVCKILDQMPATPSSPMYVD
Experimental: as §1, §2

pJNK in HEK293 cells = test: In-cell western (ICW) pJNK inhibition in HEK293; format: cell-based; conditions: 2 h pre-incubation, sorbitol stimulation
Experimental: (§3) HEK293, Beas2B and 3T3 cells were plated 24 hours before procedure on 384 well clear bottom black flat plates (Corning) pre-coated with Fibronectin (Sigma) diluted in PBS to a concentration of 5 μg/ml 45 minutes prior to cells introduction. Cells were plated using Multidrop™ Combi reagent dispenser (Thermo Fisher Scientific). Compound, reagents and antibody dispensing as well as washes were performed with a CyBio liquid handler (Analytik). Cells were pre-incubated with a small molecule or up to 1% DMSO for 2 h before fixation. HEK293, 3T3 or Beas2B cells were treated with 0.6M/0.2M/0.2M D-Sorbitol/PBS (Sigma) for 20/40/40 min. respectively, before fixation. Media was removed and wells were immediately fixed with 150 μl per well of 3.7% formaldehyde/PBS fixing solution for 20 min. Formaldehyde was then aspired and cells were permeabilized with 150 μl of 0.5% Triton x-100/PBS solution for 10 min. After aspiration cells were washed with ice-cold methanol and stored at −20° C., for 10 min. Methanol was aspired and cells were blocked with 150 μl blocking buffer (LICOR) for 90 min. Primary antibody Phospho-SAPK/JNK T183/Y185 (CST; 9251S) was diluted 1:1000 in blocking buffer and was applied 50 μl per well, except control wells to which only blocking buffer was applied, O.N. (16 h) at 4° C. with mild shaking. Primary antibody was aspired, wells were washed with 150 μl 0.1% Tween20/PBS (Sigma) washing solution three times for 7 min. IRDye® 800CW Goat anti-Rabbit IgG Secondary antibody (LICOR) was then diluted 1:1200 in blocking buffer with 50 μl applied per well on control wells only (no CellTag control), then CellTag700 (1:2000) was added to the solution and 50 μl were added to all experiment wells, for 1 h at room temperature. Wells were aspired and washed again with 150 μl 0.1% Tween20/PBS (Sigma) washing solution three times for 7 min. plate was dried and scanned with Odyssey CLx imaging system at 700 nm and 800 nm (Licor). Wells signals were analyzed with Odyssey software. The signal was normalized by the CellTag700 signal.
(§4) To rapidly assess the cellular activity (EC50) with full dose response curves of the MKK7 covalent inhibitors, according to some embodiments of the present invention, an in-cell western assay was adapted to a 384 well plate format over traditional western blot, and monitored phospho-JNK (pJNK) levels in response to osmotic shock. We first characterized the dynamics of pJNK in response to sorbitol. Sufficient dynamic range for pJNK is achieved at 20 minutes in HEK293 cells and at 40 minutes in 3T3 and Beas2B cells. The compound's activity was assessed by pre-treating cells with either compound or DMSO for 2 hours, followed by Sorbitol stimulation. The response of pJNK, and its substrates, pc-Jun and pATF2, was measured, as well as pP38, which is a substrate of MKK4 but not MKK7, and pERK in HEK293 cells, and the results are presented in Table 5 below.

pJNK in 3T3 WT cells = test: In-cell western (ICW) pJNK inhibition in 3T3 WT; format: cell-based; conditions: 3T3 WT, sorbitol stimulation; for EC50: ICW, 2 h pre-incubation
Experimental: as §3, §4
Wildtype 3T3 cells, 3T3 MKK7 double knock-out (MKK7^−/−) cells and MKK4/7 double knockouts (MKK4/7^−/−) were used to validate on target activity of the MKK7 covalent inhibitors presented herein.

p-cJun in HEK293 cells = test: p-cJun inhibition in HEK293 cells; format: cell-based; conditions: Homo sapiens
Experimental: as §3, with “Primary antibody was aspired, wells were washed with 150 μl 0.1% Tween20/PBS (Sigma) washing solution three times for 7 min. IRDye® 800CW Goat anti-Rabbit IgG Secondary antibody (LICOR) was then diluted 1:1200 in blocking buffer with 50 μl applied per well on control wells only (no CellTag control), then CellTag700 (1:2000) was added to the solution and 50 μl were added to all experiment wells, for 1 h at room temperature. Wells were aspired and washed again with 150 μl 0.1% Tween20/PBS (Sigma) washing solution three times for 7 min. plate was dried and scanned with Odyssey CLx imaging system at 700 nm and 800 nm (Licor).” left out, “The signal was normalized by the CellTag700 signal.” left out
as §4, with “We first characterized the dynamics of pJNK in response to sorbitol. Sufficient dynamic range for pJNK is achieved at 20 minutes in HEK293 cells and at 40 minutes in 3T3 and Beas2B cells.” left out

pATF2 in HEK293 cells = test: pATF2 inhibition in HEK293 cells; format: cell-based; conditions: Homo sapiens
Experimental: as §3, with “Primary antibody was aspired, wells were washed with 150 μl 0.1% Tween20/PBS (Sigma) washing solution three times for 7 min. IRDye® 800CW Goat anti-Rabbit IgG Secondary antibody (LICOR) was then diluted 1:1200 in blocking buffer with 50 μl applied per well on control wells only (no CellTag control), then CellTag700 (1:2000) was added to the solution and 50 μl were added to all experiment wells, for 1 h at room temperature. Wells were aspired and washed again with 150 μl 0.1% Tween20/PBS (Sigma) washing solution three times for 7 min. plate was dried and scanned with Odyssey CLx imaging system at 700 nm and 800 nm (Licor).” left out, “The signal was normalized by the CellTag700 signal.” left out
as §4, with “We first characterized the dynamics of pJNK in response to sorbitol. Sufficient dynamic range for pJNK is achieved at 20 minutes in HEK293 cells and at 40 minutes in 3T3 and Beas2B cells.” left out

pP38 in HEK293 cells = test: pP38 response in HEK293 cells; format: cell-based; conditions: at 10 μM
Experimental: as §4
(§5) With similar values for pcJun (2.26 μM and 1.67 μM, respectively) and pATF2 (2.79 μM 5.19 μM, respectively).

pERK in HEK293 cells = test: pERK response in HEK293 cells; format: cell-based; conditions: at 10 μM
Experimental: as §4, §5

[1] = Metabolic stability in mouse liver microsomes; format: in vitro ADME; conditions: for half-life: mouse, liver microsomes
Text: (§6) A reference compound, REF1250, was used in this study: […]

[2] = Metabolic stability in rat liver microsomes; format: in vitro ADME; conditions: for half-life: rat, liver microsomes
Text: as §6

[3] = Metabolic stability in dog liver microsomes; format: in vitro ADME; conditions: for half-life: dog, liver microsomes
Text: as §6

[4] = Metabolic stability in monkey liver microsomes; format: in vitro ADME
Text: as §6

[5] = Metabolic stability in human liver microsomes; format: in vitro ADME; conditions: for half-life: human, liver microsomes
Text: as §6

primary mouse B-cells = test: Primary B-cell activation (CD86+ FACS) in response to LPS; format: cell-based; conditions: 10 μM, 2 hours pre-incubation
Text: Compounds Block Activation of Primary Mouse B-Cells:
JNK is known to mediate activation of B-cells in response to lypopolysacharide (LPS) through the TLR4 signaling pathway as well as in response to B-cell receptor activation (stimulated e.g. with an anti-IgM antibody). Primary B-cells were isolated from the spleen of mice and assessed for their B-cell activation, via FACS analysis of CD86+ expression, in response to LPS in the presence or absence of the covalent MKK7 enzyme inhibitors presented herein, as well as a positive control JNK inhibitor, JNK-IN-8.
At 10 μM and 2 hours pre-incubation before stimulation, GO80 was able to inhibit 60% of the CD86+ response.

[6] = Homo sapiens, HEK293, HEK293, ICW

| SMILES | IC50 (MKK7) | IC50 (MKK4) | EC50 (pJNK in HEK293 cells; [6]) | EC50 (pJNK in 3T3 WT cells) | % remaining @ 40 min [1] | half-life [1] | % remaining @ 40 min [2] | half-life [2] | % remaining @ 40 min [3] | half-life [3] | % remaining @ 40 min [4] | half-life [4] | % remaining @ 40 min [5] | half-life [5] | EC50 (pJNK in HEK293 cells; HEK293, ICW) | inhibition of the CD86+ response (primary mouse B-cells) | further results |
| --- | --- | --- | --- | --- | --- | --- | --- | --- | --- | --- | --- | --- | --- | --- | --- | --- | --- |
| C=CC(=O)Nc1cccc(-c2n[nH]c3cc([N+](=O)[O-])ccc23)c1 [GO37] | 14 nM | > 10000 nM | 730 nM | 4200 nM |  |  |  |  |  |  |  |  |  |  |  |  | IC50 (pJNK in 3T3 WT cells): 5330 nM; EC50 (p-cJun in HEK293 cells): 2520 nM; EC50 (pATF2 in HEK293 cells): 3710 nM; effect on pP38 levels (pP38 in HEK293 cells): did not affect; effect on pERK levels (pERK in HEK293 cells): did not affect |
| C=CC(=O)Nc1cccc(-c2n[nH]c3cc(Br)ccc23)c1 [GO98] | 10 nM | > 10000 nM |  |  | 0% | < 5 min | 2% | 6 min | 0% | < 5 min | 0% | < 5 min | 0% | < 5 min |  |  |  |
| C=CC(=O)Nc1cc(C#N)cc(-c2n[nH]c3cc(C)ccc23)c1 [GO108] | 2 nM | > 10000 nM | 3700 nM |  | 0% | < 5 min | 6% | 10 min | 0% | < 5 min | 0% | < 5 min | 0% | < 5 min | 2300 nM |  |  |
| Cc1cc(NC(=O)c2cccc(NC(=O)/C=C/CN(C)C)c2)ccc1Nc1nccc(-c2cccnc2)n1 [JNK-IN-8, reference compound] |  |  |  |  |  |  |  |  |  |  |  |  |  |  |  | ~90% |  |
| C=CC(=O)Nc1cc(-c2n[nH]c3ccccc23)ccn1 [PCM475] |  |  |  | 300 nM | 0% |  | 22% |  | 5% |  | 18% |  | 0% |  | 900 nM | ~90% | Halflife [1]: <5 min; Halflife [2]: 18 min; Halflife [3]: 9 min; Halflife [4]: 16 min; Halflife [5]: <5 min |
